# Measurements from US9273038B2, “Solid forms of an ion channel modulator” (Gilead Sciences, Inc., priority 2014, dated 2016).
# Like-named read-outs stand apart in the source and are kept apart here.
# Key:
# [1] = Dynamic vapor sorption (DVS) analysis; format: physicochemical; settings: for Relative humidity of deliquescence (DVS): mono sulfate
# Method: The solids with unique XRPD patterns were characterized by DSC, TGA, ^1H NMR, KF and DVS. All XRPD patterns were obtained in the experimental setting as follows: 45 kV, 40 mA, Kα1=1.5406 Å, scan range 2 to 40°, step size 0.0167°, counting time: 15.24 s. DSC and TGA analyses were performed using 10° C./min heating rate over the 20 to 350° C. temperature range.
# [2] = Dissolution test of Compound I Form VII in DI water; format: physicochemical; settings: about 8 mg in 0.5 mL DI water; stirred overnight at room temperature; solid found: free base Form I
# Method: A dissolution test of Compound I Form VII (about 8 mg) and 0.5 mL of DI water was performed. The solids were almost completely dissolved at first, and then more solids precipitated out. The slurry was allowed to be stirred overnight at room temperature before XRPD and ^1H NMR analyses, which confirm Compound I free base (Form I).
# [3] = Hydrate screen in ethanol/water and isopropanol/water: solubility and relative form stability; format: physicochemical; settings: for Solubility: 5 days, started from Form I
# Method: A hydrate screen starting from Form I was also conducted to evaluate whether hydrates of Compound I exist. The hydrate screen was conducted in ethanol/water (Table 6) and isopropanol/water (Table 7) mixtures, and in both cases, a new polymorph of Compound I was discovered (denoted as Form III).
# From the initial hydrate screens presented in Table 6 and Table 7 no apparent trends were observed. In this case, all slurries of Form I in EtOH/water or IPA/water mixtures remained unchanged after 2 weeks (Table 8 and Table 9). Since Form III has been observed previously under the same conditions, it was suspected that the lack of form conversion is mainly due to slow kinetics. […] Attempts to determine the relative stability between Forms I and III at lower water activities were unsuccessful since Form I either was too soluble or oiled out at water activities of 0.8 or below.
# [4] = Stable hydrate screen in methanol/water: solubility by TGA; format: physicochemical
# Method: Since the hydrate screens from aqueous mixtures of ethanol and isopropyl alcohol were performed in a fairly narrow range of water activity (Aw≧0.8), it was desirable to determine the outcome over a wider range of water activities. An attempt was made to explore this using a system of methanol and water (Table 10). Form I was used as the starting material. […] At and above this Aw only Form I was found.
# [5] = Determination of transition temperature between Forms I and II (slurries at 35 and 38° C., pXRD); format: physicochemical; settings: slurries with and without Form II seeds, iPrOAc/n-heptane
# Method: […] describes the set of experiments which concluded that Form I and II are enantiotropic forms and determined the transition temperature. Slurries of Form I with and without Form II seeds were stirred at 35° C. and 38° C. and samples were removed periodically for pXRD analysis. For slurries of Form I aged at 35° C., Form I dominated regardless of whether Form II seeds were present (albeit when Form II seeds were present, the full conversion to Form I took about 5 days) (Table 4). In contrast, slurries of Form I at 38° C. in the presence of Form II seeds rapidly turned over to Form II within 1 day and remained Form II even after the slurry was cooled to 20° C. for isolation. When no Form II seeds were present, Form I slurries remained unchanged even when aged at 38° C.
# [6] = Relative stability of Compound I Forms XIV and XV (seeding, heating at about 130° C., XRPD); format: physicochemical; settings: seeding experiments; Form XV heated at about 130° C. for about 10 minutes gave Form XIV
# Method: In another experiment, Compound I FORM XV was heated at about 130° C. for about 10 minutes and cooled to about 21° C. prior to XRPD analysis.
# [7] = Stable form screen: solubility in single and binary solvents (HPLC, external standard); format: physicochemical
# Method: In order to determine whether other polymorphs of Compound I exist, a stable form screen was conducted. […] As a result, slurries were typically produced in non-polar solvents. Table 1). Slurries were also generated in solvent combinations with n-heptane (Table 2) and cyclohexane (Table 3). In cases where a slurry was formed, Form I was isolated after agitation for 1 day and 3 weeks.
# pKa = format: physicochemical
# [8] = tested on: late sodium current (INaL); settings: as described in WO 2013/006485; cited from earlier work
# [9] = Extended stable form screen starting from Form II: solubility of filtrate by TGA; format: physicochemical; settings: suspension of the solid in solvent, filtrate analysed, 21 °C, organic solvent or mixture, thermodynamic from solid, about 21° C.
# Method: These experiments were performed at about 21° C. starting from Form II. After about 3 to 6 days in suspension two experiments produced full conversion from Form II to Form I; one became biphasic; and the rest remained Form II (FIG. 43). Three of the filtrates obtained from isolating the solid phase from samples became biphasic before the solubility could be measured by TGA.
# After about 8 to 11 days in suspension the distribution of forms remained unchanged (FIG. 44). All of the filtrates except one became biphasic before solubility could be measured by TGA.
smiles,measurement,setting,value
"Cc1ccc(S(=O)(=O)O)cc1.O=C1c2cc(-c3ccc(OC(F)(F)F)cc3)ccc2OCCN1Cc1ncccn1 [Compound I Form VII, 4-(pyrimidin-2-ylmethyl)-7-(4-(trifluoromethoxy)phenyl)-3,4-dihydrobenzo[f][1,4]oxazepin-5(2H)-one p-toluenesulfonic acid]",Hygroscopicity by DVS (in words),[1],moderately hygroscopic
same,Moisture uptake at 90% RH (DVS),[1]; 90% RH,about 2.75 wt %
same,Water adsorbed at 90% RH (DVS),[1]; 90% RH,about 0.9 molar equivalents
same,Moisture uptake at 90% RH (DVS),"[1]; 90% RH, listed as Form VII",2.75 wt % at
same,Hygroscopicity by DVS (in words),[1]; listed as Form VII,Moderately
same,Stability in water (in words),[2],unstable in water and dissociates in it
"O=C1c2cc(-c3ccc(OC(F)(F)F)cc3)ccc2OCCN1Cc1ncccn1 [Compound I Form I, 4-(pyrimidin-2-ylmethyl)-7-(4-(trifluoromethoxy)phenyl)-3,4-dihydrobenzo[f][1,4]oxazepin-5(2H)-one]",Form I Solubility mg/g (2 weeks),"[3]; 10% EtOH/water, water activity >0.9",0.09 mg/g
same,Form I Solubility mg/g (2 weeks),"[3]; 10% IPA/water, water activity >0.9",0.10 mg/g
same,Form I Solubility mg/g (2 weeks),"[3]; 20% EtOH/water, water activity 0.8-0.9",0.10 mg/g
same,Form I Solubility mg/g (2 weeks),"[3]; 20% IPA/water, water activity >0.9",0.18 mg/g
same,Form I Solubility mg/g (2 weeks),"[3]; 25% IPA/water, water activity >0.9",0.65 mg/g
same,Form I Solubility mg/g (2 weeks),"[3]; 30% EtOH/water, water activity 0.8-0.9",0.49 mg/g
same,Form I Solubility mg/g (2 weeks),"[3]; 30% IPA/water, water activity >0.9",4.7 mg/g
same,Form I Solubility mg/g (2 weeks),"[3]; 35% EtOH/water, water activity 0.8-0.9",1.3 mg/g
same,3 days TGA,"[4]; Aw 0.6, 3 days",14 mg/mL
same,3 days TGA,"[4]; Aw 0.7, 3 days",4.5 mg/mL
same,14 days TGA,"[4]; Aw 0.7, 14 days",2 mg/mL
same,3 days TGA,"[4]; Aw 0.8, 3 days",1.4 mg/mL
same,14 days TGA,"[4]; Aw 0.8, 14 days",1 mg/mL
same,3 days TGA,"[4]; Aw 0.9, 3 days",0.5 mg/mL
same,14 days TGA,"[4]; Aw 0.9, 14 days",<1 mg/mL
same,Solubility (in words),"[4]; Aw below 0.6, only solutions present",extraordinarily high
same,Relative stability of Forms I and II (in words),[5]; listed as Form I,the more stable form at below 35 °C
"O=C1c2cc(-c3ccc(OC(F)(F)F)cc3)ccc2OCCN1Cc1ncccn1.O=S(=O)(O)O [Compound I Form XIV, 4-(pyrimidin-2-ylmethyl)-7-(4-(trifluoromethoxy)phenyl)-3,4-dihydrobenzo[f][1,4]oxazepin-5(2H)-one mono sulfate]",Relative humidity of deliquescence (DVS),[1]; listed as Compound I FORM XIV,around 70 % RH
same,Relative humidity of deliquescence (DVS),[1],about 70 % RH
same,Relative stability of Forms XIV and XV (in words),[6],the more stable phase in comparison with Compound I FORM XV
"O=C1c2cc(-c3ccc(OC(F)(F)F)cc3)ccc2OCCN1Cc1ncccn1 [Compound I, 4-(pyrimidin-2-ylmethyl)-7-(4-(trifluoromethoxy)phenyl)-3,4-dihydrobenzo[f][1,4]oxazepin-5(2H)-one]",Solubility (mg/g) (3 weeks),"[7]; 2-MeTHF/n-heptane (1:5) v/v, slurry, solid Form I",6.7 mg/g
same,Solubility (mg/g) (3 weeks),"[7]; Cyclohexane, slurry, solid Form I",2.4 mg/g
same,Solubility (mg/g) (1 day),"[7]; EtOAc/cyclohexane (1:3) v/v, 1 day, slurry, solid Form I",86 mg/g
same,Solubility (mg/g) (3 weeks),"[7]; IPA/n-heptane (1:4) v/v, slurry, solid Form I",20.0 mg/g
same,Solubility (mg/g) (3 weeks),"[7]; IPA, homogenous",>300 mg/g
same,Solubility (mg/g) (3 weeks),"[7]; IPE, slurry, solid Form I",21.5 mg/g
same,Solubility (mg/g) (3 weeks),"[7]; MTBE/n-heptane (1:2) v/v, slurry, solid Form I",5.4 mg/g
same,Solubility (mg/g) (3 weeks),"[7]; MTBE, homogenous",>240 mg/g
same,Solubility (mg/g) (3 weeks),"[7]; MeCN, homogenous",>350 mg/g
same,Solubility (mg/g) (3 weeks),"[7]; Toluene/n-heptane (1:3) v/v, slurry, solid Form I",7.1 mg/g
same,Solubility (mg/g) (3 weeks),"[7]; Toluene, homogenous",>500 mg/g
same,Solubility (mg/g) (3 weeks),"[7]; Water, slurry, solid Form I",0 mg/g
same,Solubility (mg/g) (3 weeks),"[7]; iPrOAc/n-heptane (1:3) v/v, slurry, solid Form I",18.9 mg/g
same,Solubility in organic solvents (in words),[7]; many organic solvents,highly soluble
same,Solubility (mg/g) (3 weeks),"[7]; n-Heptane, slurry, solid Form I",0.9 mg/g
same,Solubility (mg/g) (3 weeks),"[7]; t-amyl alcohol/n-heptane (1:3) v/v, slurry, solid Form I",17.5 mg/g
same,Solubility,"[3]; 10% EtOH in water (volume), water activity >0.9, solid found Form I",0 mg/g
same,Solubility,"[3]; 10% IPA in water (volume), water activity >0.9, solid found Form III",0 mg/g
same,Solubility,"[3]; 20% EtOH in water (volume), water activity 0.8-0.9, solid found Form III",0.05 mg/g
same,Solubility,"[3]; 20% IPA in water (volume), water activity >0.9, solid found Form I",0 mg/g
same,Solubility,"[3]; 25% IPA in water (volume), water activity >0.9, solid found Form III",0.5 mg/g
same,Solubility,"[3]; 30% EtOH in water (volume), water activity 0.8-0.9, solid found Form I",0.6 mg/g
same,pKa,pKa,< 2
same,Late sodium current inhibition (in words),[8],selective late sodium current inhibitor
"O=C1c2cc(-c3ccc(OC(F)(F)F)cc3)ccc2OCCN1Cc1ncccn1 [Compound I Form II, 4-(pyrimidin-2-ylmethyl)-7-(4-(trifluoromethoxy)phenyl)-3,4-dihydrobenzo[f][1,4]oxazepin-5(2H)-one]",Solubility,"[9]; Ethanol/n-heptane (1/4) v/v, 4-6 days, read-out: 4-6 Days Solubility",32 mg/mL
same,Solubility,"[9]; MIBK/n-heptane (1/4) v/v, 4-6 days, read-out: 4-6 Days Solubility",26 mg/mL
same,Solubility,"[9]; MIBK/n-heptane (1/4) v/v, 8-11 days, read-out: 8-11 Day Solubility",35 mg/mL
same,Solubility,"[9]; THF/n-heptane (1/4) v/v, 4-6 days, read-out: 4-6 Days Solubility",29 mg/mL
same,Relative stability of Forms I and II (in words),[5]; listed as Form II,the more stable form at or above 38 °C
